Active and inactive are the calls of the source. How the calls were made is not given here.
Test system: rodent lifetime carcinogenesis bioassay, tumor incidence TD50
Assay: carcinogenic potency in animals, long-term in vivo studies, CPDB compilation (AID 1745844)

FCC(F)(F)F
carcinogen call (mouse, strain B6C3F1, females, inhaled, site: liver, lesion: hepatocellular adenoma, dosed 104 weeks, study length 104 weeks): negative (inactive)
carcinogen call (mouse, strain B6C3F1, females, inhaled, site: liver, lesion: hepatocellular carcinoma, dosed 104 weeks, study length 104 weeks): negative (inactive)
carcinogen call (mouse, strain B6C3F1, females, inhaled, site: lung, lesion: alveolar/bronchiolar tumor, dosed 104 weeks, study length 104 weeks): negative (inactive)
TD50 (mouse, strain B6C3F1, males, inhaled, site: liver, lesion: hepatocellular adenoma, dosed 104 weeks, study length 104 weeks): 1.5e+06 mg/kg/day (inactive)
TD50 (mouse, strain B6C3F1, males, inhaled, site: liver, lesion: hepatocellular carcinoma, dosed 104 weeks, study length 104 weeks): 260000 mg/kg/day (inactive)
carcinogen call (mouse, strain B6C3F1, males, inhaled, site: lung, lesion: alveolar/bronchiolar tumor, dosed 104 weeks, study length 104 weeks): negative (inactive)
TD50 (rat, strain Alpk:APfSD, males, inhaled, site: testis, lesion: Leydig-cell adenoma, dosed 104 weeks, study length 104 weeks): 29900 mg/kg/day
TD50 (rat, strain Han-Ibm Wistar, females, inhaled, site: liver, lesion: hepatocellular carcinoma, dosed 108 weeks, study length 108 weeks): 2.8e+06 mg/kg/day (inactive)
TD50 (rat, strain Han-Ibm Wistar, males, inhaled, site: liver, lesion: hepatocellular adenoma, dosed 108 weeks, study length 108 weeks): 70100 mg/kg/day (inactive)
TD50 (rat, strain Han-Ibm Wistar, males, inhaled, site: liver, lesion: hepatocellular carcinoma, dosed 108 weeks, study length 108 weeks): 140000 mg/kg/day (inactive)
carcinogen call (rat, strain Han-Ibm Wistar, males, inhaled, site: testis, lesion: interstitial-cell tumor, dosed 108 weeks, study length 108 weeks): negative (inactive)

CC(C)NCC(O)c1ccc(NS(C)(=O)=O)cc1 (stereo unspecified)
TD50 (mouse, strain Charles River CD1, females, in feed, site: any site (literature study), lesion: benign tumor, dosed 78 weeks, study length 92 weeks): 1740 mg/kg/day (inactive)
carcinogen call (mouse, strain Charles River CD1, females, in feed, site: any site (literature study), lesion: malignant tumor, dosed 78 weeks, study length 92 weeks): negative (inactive)
TD50 (mouse, strain Charles River CD1, females, in feed, site: any site (literature study), lesion: several types, types named in the paper, dosed 78 weeks, study length 92 weeks): 1910 mg/kg/day (inactive)
carcinogen call (mouse, strain Charles River CD1, females, in feed, site: liver, lesion: one or several types, types not named, dosed 78 weeks, study length 92 weeks): negative (inactive)
TD50 (mouse, strain Charles River CD1, females, in feed, site: lung, lesion: adenoma, dosed 78 weeks, study length 92 weeks): 3500 mg/kg/day (inactive)
TD50 (mouse, strain Charles River CD1, females, in feed, site: lung, lesion: carcinoma, dosed 78 weeks, study length 92 weeks): 24500 mg/kg/day (inactive)
carcinogen call (mouse, strain Charles River CD1, males, in feed, site: any site (literature study), lesion: benign tumor, dosed 78 weeks, study length 92 weeks): negative (inactive)
carcinogen call (mouse, strain Charles River CD1, males, in feed, site: any site (literature study), lesion: malignant tumor, dosed 78 weeks, study length 92 weeks): negative (inactive)
carcinogen call (mouse, strain Charles River CD1, males, in feed, site: any site (literature study), lesion: several types, types named in the paper, dosed 78 weeks, study length 92 weeks): negative (inactive)
carcinogen call (mouse, strain Charles River CD1, males, in feed, site: liver, lesion: adenoma, dosed 78 weeks, study length 92 weeks): negative (inactive)
carcinogen call (mouse, strain Charles River CD1, males, in feed, site: liver, lesion: carcinoma, dosed 78 weeks, study length 92 weeks): negative (inactive)
TD50 (mouse, strain Charles River CD1, males, in feed, site: lung, lesion: adenoma, dosed 78 weeks, study length 92 weeks): 31400 mg/kg/day (inactive)
carcinogen call (mouse, strain Charles River CD1, males, in feed, site: lung, lesion: carcinoma, dosed 78 weeks, study length 92 weeks): negative (inactive)
carcinogen call (rat, strain Long-Evans, females, in feed, site: any site (literature study), lesion: benign tumor, dosed 78 weeks, study length 104 weeks): negative (inactive)
TD50 (rat, strain Long-Evans, females, in feed, site: any site (literature study), lesion: malignant tumor, dosed 78 weeks, study length 104 weeks): 1600 mg/kg/day (inactive)
TD50 (rat, strain Long-Evans, females, in feed, site: any site (literature study), lesion: several types, types named in the paper, dosed 78 weeks, study length 104 weeks): 477 mg/kg/day (inactive)
TD50 (rat, strain Long-Evans, females, in feed, site: liver, lesion: cholangioma, dosed 78 weeks, study length 104 weeks): 12600 mg/kg/day (inactive)
carcinogen call (rat, strain Long-Evans, males, in feed, site: any site (literature study), lesion: benign tumor, dosed 78 weeks, study length 104 weeks): negative (inactive)
TD50 (rat, strain Long-Evans, males, in feed, site: any site (literature study), lesion: malignant tumor, dosed 78 weeks, study length 104 weeks): 2270 mg/kg/day (inactive)
TD50 (rat, strain Long-Evans, males, in feed, site: any site (literature study), lesion: several types, types named in the paper, dosed 78 weeks, study length 104 weeks): 796 mg/kg/day (inactive)
TD50 (rat, strain Long-Evans, males, in feed, site: liver, lesion: hepatocellular adenoma, dosed 78 weeks, study length 104 weeks): 309000 mg/kg/day (inactive)
TD50 (rat, strain Long-Evans, males, in feed, site: liver, lesion: hepatocellular carcinoma, dosed 78 weeks, study length 104 weeks): 12400 mg/kg/day (inactive)

C=C/C1=C/C(C)C(C)(OC(C)=O)C(=O)OCC2=CC[N+]3(C)CCC(OC1=O)C23O (stereo unspecified)
TD50 (rat, strain ACI, both sexes, in drinking water, site: liver, lesion: hemangioendothelial sarcoma, dosed 48 weeks, study length 68 weeks): 3.01 mg/kg/day
TD50 (rat, strain ACI, both sexes, in drinking water, site: liver, lesion: neoplastic nodule, dosed 48 weeks, study length 68 weeks): 0.697 mg/kg/day
TD50 (rat, strain ACI, both sexes, in drinking water, site: liver, lesion: several types, types named in the paper, dosed 48 weeks, study length 68 weeks): 0.5 mg/kg/day
